Source: ChEMBL document CHEMBL5223107 (Bioorg Med Chem Lett, 2022)
Active and inactive are the calls of the source. The rule behind the calls is not given here.

Assays:
LNCaP = assay: Antiproliferative activity against human LNCaP cells assessed as cell growth inhibition incubated for 72 hrs by MTT assay; assay type: functional, cell-based
[1] = target: T1, Androgen receptor (Homo sapiens) (UniProt P10275); assay: Inhibition of androgen receptor in human LNCaP cells assessed as reduction in DHT-induced AR mRNA expression level at 1 to 5 uM incubated for 24 hrs by qRT-PCR analysis; assay type: cell-based; conditions: dose 1-5 µM
T1 sequence (whole entry): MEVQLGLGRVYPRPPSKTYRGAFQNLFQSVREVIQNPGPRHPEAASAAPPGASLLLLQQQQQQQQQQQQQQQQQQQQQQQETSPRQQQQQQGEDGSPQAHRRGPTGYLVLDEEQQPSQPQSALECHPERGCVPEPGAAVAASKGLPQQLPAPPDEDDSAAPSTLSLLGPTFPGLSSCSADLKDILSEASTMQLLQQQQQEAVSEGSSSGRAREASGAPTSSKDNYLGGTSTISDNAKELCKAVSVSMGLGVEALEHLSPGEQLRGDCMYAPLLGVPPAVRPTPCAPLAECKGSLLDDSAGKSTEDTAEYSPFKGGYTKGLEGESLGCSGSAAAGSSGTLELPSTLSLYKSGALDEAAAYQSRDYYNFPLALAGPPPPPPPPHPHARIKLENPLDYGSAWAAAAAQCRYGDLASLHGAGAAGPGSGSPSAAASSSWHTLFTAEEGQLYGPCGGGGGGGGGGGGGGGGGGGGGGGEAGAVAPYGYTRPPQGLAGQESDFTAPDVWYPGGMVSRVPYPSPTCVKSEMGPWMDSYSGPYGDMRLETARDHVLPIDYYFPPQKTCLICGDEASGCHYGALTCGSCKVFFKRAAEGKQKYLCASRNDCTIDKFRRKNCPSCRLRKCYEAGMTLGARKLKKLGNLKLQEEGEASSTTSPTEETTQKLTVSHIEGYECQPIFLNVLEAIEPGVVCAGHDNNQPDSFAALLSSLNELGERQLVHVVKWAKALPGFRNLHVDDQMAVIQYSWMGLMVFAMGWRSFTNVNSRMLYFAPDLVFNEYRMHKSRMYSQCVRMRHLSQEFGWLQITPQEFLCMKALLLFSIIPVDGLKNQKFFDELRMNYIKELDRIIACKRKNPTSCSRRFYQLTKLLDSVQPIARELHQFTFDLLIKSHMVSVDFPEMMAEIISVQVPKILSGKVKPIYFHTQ

[2] = target: T1, Androgen receptor (Homo sapiens); assay: Inhibition of androgen receptor in human LNCaP cells assessed as reduction in DHT-induced AR expression level at 1 to 5 uM incubated for 24 hrs by western blot analysis; assay type: cell-based; conditions: dose 1-5 µM
[3] = target: T1, Androgen receptor (Homo sapiens); assay: Inhibition of androgen receptor in human LNCaP cells assessed as reduction in DHT-induced PSA mRNA expression level at 1 to 5 uM incubated for 24 hrs by qRT-PCR analysis; assay type: cell-based; conditions: dose 1-5 µM
[4] = target: T1, Androgen receptor (Homo sapiens); assay: Inhibition of androgen receptor in human 22Rv1 cells assessed as reduction in […] expression level at 1 to 10 uM incubated for 24 hrs by western blot analysis; assay type: cell-based; conditions: dose 1-10 µM
[5] = target: T1, Androgen receptor (Homo sapiens); assay: Inhibition of androgen receptor in human PC-3 cells assessed as inhibition of AR transcription activity by dual-luciferase reporter assays; assay type: cell-based
[6] = target: T1, Androgen receptor (Homo sapiens); assay: Inhibition of androgen receptor in human LNCaP cells assessed as reduction in DHT-induced PSA level at 1 to 5 uM incubated for 24 hrs by western blot analysis; assay type: cell-based; conditions: dose 1-5 µM
[7] = target: T1, Androgen receptor (Homo sapiens); assay: Inhibition of androgen receptor in human 22Rv1 cells assessed as reduction in DHT-induced AR expression level at 1 to 5 uM incubated for 24 hrs by western blot analysis; assay type: cell-based; conditions: dose 1-5 µM
[8] = target: T1, Androgen receptor (Homo sapiens); assay: Inhibition of androgen receptor in human 22Rv1 cells assessed as reduction in DHT-induced AR mRNA expression level at 1 to 5 uM incubated for 24 hrs by qRT-PCR analysis; assay type: cell-based; conditions: dose 1-5 µM
[9] = target: T1, Androgen receptor (Homo sapiens); assay: Inhibition of androgen receptor in human 22Rv1 cells assessed as reduction in DHT-induced PSA level at 1 to 5 uM incubated for 24 hrs by western blot analysis; assay type: cell-based; conditions: dose 1-5 µM
[10] = target: T1, Androgen receptor (Homo sapiens); assay: Inhibition of androgen receptor in human 22Rv1 cells assessed as reduction in DHT-induced PSA mRNA expression level at 1 to 5 uM incubated for 24 hrs by qRT-PCR analysis; assay type: cell-based; conditions: dose 1-5 µM
[11] = target: T1, Androgen receptor (Homo sapiens); assay: Inhibition of androgen receptor in human 22Rv1 cells assessed as reduction in BCL-2 expression level at 1 to 10 uM incubated for 24 hrs by western blot analysis; assay type: cell-based; conditions: dose 1-10 µM
PC-3 = assay: Antiproliferative activity against human PC-3 cells assessed as cell growth inhibition incubated for 72 hrs by MTT assay; assay type: functional, cell-based; conditions: PC-3, 72 h
CWR22R = assay: Antiproliferative activity against human 22Rv1 cells assessed as cell growth inhibition incubated for 72 hrs by MTT assay; assay type: functional, cell-based; conditions: 22Rv1, 72 h

IC50 (LNCaP): 350 nM
inhibition [1]: Dose-Dependent Effect
inhibition [2]: Dose-Dependent Effect
inhibition [3]: Dose-Dependent Effect
inhibition [4]: Active
inhibition [5]: Dose-Dependent Effect
inhibition [6]: Dose-Dependent Effect
inhibition [7]: Active
inhibition [8]: Dose-Dependent Effect
inhibition [9]: Active
inhibition [10]: Dose-Dependent Effect
inhibition [11]: Active
IC50 (PC-3): 3160 nM
SMILES: CC1=CC2C(C(C)C)=C(O)C(=O)/C(=C\NCCS(=O)(=O)O)C2C(O)=C1c1c(C)cc2c(c1O)/C(=C/NCCS(=O)(=O)O)C(=O)C(O)=C2C(C)C (centres undefined)
IC50 (CWR22R): 910 nM
